Laboratory results taken from US20110039763A1, “TARGETED ANTIMICROBIAL MOIETIES” (C3 JIAN, INC., priority 2009, published 2011).
“Also recorded” adds a separate entry of the source.

Columns and labels:
[1] = test system: microorganisms; assay: Morphology, biofilm and growth disrupting peptides (Table 5); format: cell-based; parameters: key: A: Peptide aggregates; B: Less hyphal formation; Clumps; Diffuse clumps and small polyps; F: Diffuse growth; H: Thin; I: Growth inhibition; Microcolony formation; Rippled; Small polyps; Thick; W: Halo formation on top, microlonies on bottom
Source text: In certain embodiments peptides that induce alterations in phenotype or other biological activities can also be used as antimicrobial effector moieties.

[2] = test system: microorganisms; assay: Peptide activities: targeting/binding, antimicrobial, growth or phenotype altering (Tables 7, 8); format: cell-based; settings: peptides having multiple activities
[3] = test system: microorganisms; assay: Targeting peptide binding to target microorganisms (Tables 3, 10, 12); settings: microorganism(s) the targeting peptide binds, preferably 1x PBS
[4] = binding in aqueous buffers that varied with peptide solubility
[5] = binding in aqueous buffers varied with peptide solubility

| Substance | Organism, effect: C. jeikeium [1] | Organism, effect: S. epidermidis [1] | Activities [2] | Target(s) [3, 5] | further results |
| --- | --- | --- | --- | --- | --- |
| PF-065: peptide having multiple activities (LEKNTRDNYFIHAIDRIYINTSKGLFPESELVAWG; Peptide with targeting and/or antimicrobial activity) | C. jeikeium (A) | S. epidermidis (D) | G B | – | Organism, effect: MRSA [1]: MRSA (R); Target(s) [3, 4]: M. luteus and E. coli and P. aeruginosa and C. albicans and MRSA and S. pneumoniae and C. jeikeium and C. jejuni |
| PF-069: peptide having multiple activities (chain 1 FDPVPLKKDKSASKHSHKHNH; chain 2 FDPVPLKKDKSASKHSHKHNH; Peptide with targeting and/or antimicrobial activity) | – | – | G B | – | Organism, effect: B. subtilis [1]: B. subtilis (D); Organism, effect: C. jejuni [1]: C. jejuni (R); Target(s) [3, 4]: E. faecalis; also recorded: C. jejuni |
| PF-070: peptide having multiple activities (chain 1 SMVKSEIVDLLNGEDNDD; chain 2 SMVKSEIVDLLNGEDNDD; Peptide with targeting and/or antimicrobial activity) | – | – | G B | – | Organism, effect: B. subtilis [1]: B. subtilis (D); Target(s) [3, 4]: S. epidermidis; also recorded: C. jejuni |
| PF-074: peptide having multiple activities (chain 1 RDIHPIYFMTKD; chain 2 RDIHPIYFMTKD; Peptide with targeting and/or antimicrobial activity) | – | S. epidermidis (D) | G B | S. epidermidis and M. luteus and MRSA | Organism, effect: MRSA [1]: MRSA (M) |
| PF-099: peptide having multiple activities (chain 1 EIIAYLEGRFANA; chain 2 EIIAYLEGRFANA; Peptide with targeting and/or antimicrobial activity) | C. jeikeium (C) | S. epidermidis (D) | G B | S. epidermidis; also recorded: M. luteus; also recorded: E. coli; also recorded: C. jeikeium | – |
| PF-123: peptide having multiple activities (chain 1 TTRPQVAEDRQLDDALKETFPASDPISP; chain 2 TTRPQVAEDRQLDDALKETFPASDPISP; Peptide with targeting and/or antimicrobial activity) | – | S. epidermidis (M) | G B | M. luteus; also recorded: E. coli | – |
| PF-128: peptide having multiple activities (chain 1 GIKVVAARFEEIQFSENFDSIILA; chain 2 GIKVVAARFEEIQFSENFDSIILA; Peptide with targeting and/or antimicrobial activity) | – | S. epidermidis (D) | G B | M. luteus; also recorded: P. aeruginosa; also recorded: E. faecalis | Organism, effect: P. aeruginosa ([1]; P. aeruginosa): P. aeruginosa (C) |
| PF-129: peptide having multiple activities (chain 1 MKLLARDPWVCAWNDIW; chain 2 MKLLARDPWVCAWNDIW; Peptide with targeting and/or antimicrobial activity) | C. jeikeium (R) | S. epidermidis (M) | G B | S. epidermidis and MRSA and E. faecalis and C. jeikeium and C. jejuni | – |
| PF-133: peptide having multiple activities (chain 1 GDPTAGQKPVECP; chain 2 GDPTAGQKPVECP; Peptide with targeting and/or antimicrobial activity) | C. jeikeium (R) | – | G B | S. epidermidis; also recorded: C. jeikeium; also recorded: C. jejuni; also recorded: M. smegmatis | – |
| PF-135: peptide having multiple activities (chain 1 PPARPARIPQTPTLHGASLFRQRS; chain 2 PPARPARIPQTPTLHGASLFRQRS; Peptide with targeting and/or antimicrobial activity) | C. jeikeium (R) | – | G B | S. epidermidis and M. luteus and E. coli and P. aeruginosa and MRSA and C. jeikeium and M. smegmatis | – |
| PF-144: peptide having multiple activities (chain 1 RSGQPVGRPSRRAWLR; chain 2 RSGQPVGRPSRRAWLR; Peptide with targeting and/or antimicrobial activity) | – | – | G B | S. epidermidis and M. luteus and E. coli and C. albicans and MRSA and S. pneumoniae and E. faecalis and C. jeikeium | Organism, effect: S. pneumoniae [1]: S. pneumoniae (H) |
| PF-149: peptide having multiple activities (chain 1 GKVSVLTRVPRSLGGAPANQ; chain 2 GKVSVLTRVPRSLGGAPANQ; Peptide with targeting and/or antimicrobial activity) | – | – | G B | S. epidermidis and M. luteus and E. coli and MRSA and C. jeikeium | Organism, effect: MRSA [1]: MRSA (H) |
| PF-153: peptide having multiple activities (chain 1 GILARADCSQIA; chain 2 GILARADCSQIA; Peptide with targeting and/or antimicrobial activity) | C. jeikeium (C) | S. epidermidis (M) | G B | M. luteus and P. mirabilis and E. coli and MRSA | – |
| PF-156: peptide having multiple activities (LITAEQPATAPIAGK; Peptide with targeting and/or antimicrobial activity) | – | – | G B | S. epidermidis; also recorded: C. jeikeium | Organism, effect: MRSA [1]: MRSA (H) |
| PF-164: peptide having multiple activities (EEVSRALAGIGLGLGCRIG; Peptide with targeting and/or antimicrobial activity) | C. jeikeium (R) | – | G B | S. epidermidis; also recorded: M. luteus; also recorded: E. coli; also recorded: C. jeikeium | – |
| PF-171: peptide having multiple activities (TQVTLCRTW; Peptide with targeting and/or antimicrobial activity) | – | S. epidermidis (R) | G B | S. epidermidis; also recorded: E. coli; also recorded: P. aeruginosa; also recorded: S. pneumoniae | Organism, effect: B. subtilis [1]: B. subtilis (D); Organism, effect: C. jejuni [1]: C. jejuni (R); Organism, effect: M. luteus [1]: M. luteus (R); Organism, effect: MRSA [1]: MRSA (M); Organism, effect: S. pneumoniae [1]: S. pneumoniae (D) |
| PF-173: peptide having multiple activities (AGRTAIVQGGG; Peptide with targeting and/or antimicrobial activity) | C. jeikeium (D) | S. epidermidis (A) | G B | S. epidermidis; also recorded: M. luteus; also recorded: P. mirabilis; also recorded: E. coli; also recorded: P. aeruginosa; also recorded: C. albicans; also recorded: C. jeikeium; also recorded: C. jejuni | – |
| PF-175: peptide having multiple activities (RRRPAGQRPEKASQAMIAA; Peptide with targeting and/or antimicrobial activity) | – | – | G B | S. epidermidis; also recorded: E. faecalis | Organism, effect: B. subtilis [1]: B. subtilis (D); Organism, effect: C. albicans ([1]; C. albicans): C. albicans (B); Organism, effect: C. jejuni [1]: C. jejuni (M); Organism, effect: M. luteus [1]: M. luteus (S); Organism, effect: S. pneumoniae [1]: S. pneumoniae (A) |
| PF-176: peptide having multiple activities (RLTSNQFLTRITPFVFAQH; Peptide with targeting and/or antimicrobial activity) | C. jeikeium (D) | S. epidermidis (C) | G B | S. epidermidis and M. luteus and P. mirabilis and E. coli and C. albicans and MRSA and E. faecalis and C. jeikeium | Organism, effect: M. luteus [1]: M. luteus (C) |
| PF-180: peptide having multiple activities (SGLGDLGFSSEAK; Peptide with targeting and/or antimicrobial activity) | – | S. epidermidis (C) | G B | S. epidermidis and M. luteus and P. aeruginosa and C. albicans and MRSA and E. faecalis and C. jejuni and M. smegmatis | – |
| PF-186: peptide having multiple activities (DADKNLSLERDRFAWRVAAP; Peptide with targeting and/or antimicrobial activity) | C. jeikeium (A) | S. epidermidis (C) | G B | S. epidermidis and M. luteus and E. coli and P. aeruginosa and MRSA and C. jeikeium | – |
| PF-188: peptide having multiple activities (ARTFAGRLGTRYFGGLMRSTKA; Peptide with targeting and/or antimicrobial activity) | C. jeikeium (H) | – | G B | S. epidermidis and M. luteus and E. coli and C. albicans and MRSA and E. faecalis | – |
| PF-191: peptide having multiple activities (QFCNFAWLFLASNNAQVSALA; Peptide with targeting and/or antimicrobial activity) | C. jeikeium (R) | S. epidermidis (A) | G B | E. coli; also recorded: P. aeruginosa; also recorded: C. jejuni | Organism, effect: MRSA [1]: MRSA (H) |
